Bounds are passed on as bounds.

In the experiment the target is T1, recombinant cGAS (aa147-522) (Homo sapiens, UniProt Q8N884).
T1 construct: recombinant cGAS (aa147-522); His6-SUMO (N, cleaved yes); made in house; host or cells: E. coli BL21/pLys
T1 sequence (Q8N884 147-522): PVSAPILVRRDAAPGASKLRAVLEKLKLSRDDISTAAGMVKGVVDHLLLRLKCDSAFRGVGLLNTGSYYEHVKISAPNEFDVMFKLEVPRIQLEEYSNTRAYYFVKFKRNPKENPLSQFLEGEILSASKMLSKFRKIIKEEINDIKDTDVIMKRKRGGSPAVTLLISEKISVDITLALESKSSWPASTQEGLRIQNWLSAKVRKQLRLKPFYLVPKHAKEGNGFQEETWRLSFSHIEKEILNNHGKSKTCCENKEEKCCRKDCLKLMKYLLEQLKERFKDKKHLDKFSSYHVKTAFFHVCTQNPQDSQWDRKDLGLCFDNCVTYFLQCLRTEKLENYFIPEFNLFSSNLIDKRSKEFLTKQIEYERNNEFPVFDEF
Briefly: In vitro assay for inhibition of cGAS activity (ATP consumption, Kinase Glo). Format: biochemical. The following applies: 37° C. 20 minutes, read-out: Activity (Inhibition of cGAS enzyme activity in vitro, IC50). As to the method: cDNA encoding full-length or amino acids 147-520 of human cGAS is inserted into a modified pET28a vector containing an in-frame His6-SUMO tag. The E. coli strain BL21/pLys harboring the plasmid is induced with 0.5 mM IPTG at 18° C. overnight. His6-SUMO tag was removed by a SUMO proease following purification of the HiS-SUMO-cGAS as described previously (Sun et al, 2013, Science 339, 786).
A40 μL mixture containing 1.5 ng/μL of recombinant cGAS (aa147-522) and serial dilutions of a test compound or DMSO was added to a 96-well plate and incubated at 37° C. for 20 minutes. At the end of reaction, 20 μL of Kinase Glo (Promega) was added and chemiluminescence measured with a luminometer. Inhibitory effect of a compound is evaluated by plotting percentage of ATP consumption against logarithm of compound concentrations. IC50 value was calculated using Graphpad (Sigma).
On the technique in general: In Kinase-Glo more light means more ATP remaining.
The IC50 is the point on the concentration scale where inhibition reaches its midpoint. For `COc1cc(/C=C2\SC(=O)N(C)C2=O)c(Br)cc1OCc1ccncc1` [Ex203], the IC50 fell in the range of 500 to 10000 nM. The same measure for `[2H]C(C)(Oc1cc(/C=C2\SC(=O)N(C)C2=O)c(Br)c(F)c1O)c1cnc(N)nc1` (stereo not shown) [ExB29]: ≤ 500 nM; for `CN1C(=O)S/C(=C\c2cc(OCc3cncnc3O)c(O)cc2Br)C1=O` [Ex218]: ≤ 500 nM. For the molecule `COc1cc(/C=C2\SC(=O)N(C)C2=O)c(C#N)cc1O` [Ex205], the IC50 lay in the range of 500 to 10000 nM. Consider `CN1C(=O)S/C(=C\c2cc(OCc3cnc(Nc4cccnc4)nc3)c(O)cc2Br)C1=O` [Ex159], for which the IC50 lay in the range of 500 to 10000 nM. On to `CN1C(=O)S/C(=C\c2cc(OCc3cnc(N4CCCCC4)nc3)c(O)cc2Br)C1=O` [Ex164], for which the IC50 was ≥ 10000 nM.

In the case of `Cc1nc(N)ncc1COc1cc(/C=C2\Sc3ncccc3C2=O)c(Br)c(F)c1O` [ExA8], the IC50 was ≤ 500 nM.

Turning to `O=C1NC(=O)/C(=C/c2ccncc2)S1` [Ex1], the half-maximal inhibitory concentration (IC50) is ≤ 500 nM. The same measure for `CC(C)CNc1cncc(COc2cc(/C=C3\SC(=O)N(C)C3=O)c(Br)cc2O)c1` [Ex229]: ≥ 10000 nM; for `O=C1/C(=C/c2cc3oc(=O)[nH]c3cc2Br)Sc2ncccc21` [Ex26]: 500 to 10000 nM; for `COc1cc(/C=C2\SC(=O)N(C)C2=O)c(Br)cc1NS(=O)(=O)c1ccc(C)cc1` [Ex24]: ≥ 10000 nM.

In the case of `CN1C(=O)S/C(=C\c2cc(Oc3ccnc(N)c3)c(O)cc2Br)C1=O` [Ex101], the 50% inhibitory concentration (IC50) was 500 to 10000 nM. Regarding `COc1ncc(COc2cc(/C=C3\SC(=O)N(C)C3=O)c(Br)cc2O)cn1` [Ex143], the IC50 is 500 to 10000 nM. The value for `O=C1/C(=C/c2cc(C(F)(F)F)c(O)cc2Br)Sc2ncccc21` [ExB17] was ≤ 500 nM. As to `CCc1cc(/C=C2\Sc3ncccc3C2=O)c(Br)cc1O` [Ex79], the IC50 was ≤ 500 nM.

As to `COc1nc(SC)ncc1COc1cc(/C=C2\SC(=O)N(C)C2=O)c(Br)cc1O` [Ex99], the IC50 is 500 to 10000 nM.

On to `CN1C(=O)S/C(=C\c2cc(OCc3cnc(NC(=O)c4ccncc4)nc3)c(O)c(F)c2Br)C1=O` [Ex191], for which the IC50 was ≤ 500 nM.

Turning to `CN1C(=O)S/C(=C\c2cc(C(F)(F)F)c(O)cc2Br)C1=O` [ExB16], the IC50 is ≤ 500 nM. In the case of `COc1cc(/C=c2\sc3ncc(C)n3c2=O)c(Br)cc1O` [Ex17], the IC50 was ≥ 10000 nM. In the case of `CN1C(=O)S/C(=C\c2cc(OCc3cn(-c4ccccc4)nn3)c(O)cc2Br)C1=O` [Ex232], the IC50 is ≥ 10000 nM.

On to `CN1C(=O)S/C(=C\c2cc(C(C)(F)F)c(O)cc2Br)C1=O` [Ex210], for which the IC50 fell in the range of 500 to 10000 nM. The same measure for `COCCNc1ncc(C(C)Oc2cc(/C=C3\SC(=O)N(C)C3=O)c(Br)cc2O)cn1` (stereo not shown) [Ex182]: 500 to 10000 nM; for `COc1cc(/C=C2\Sc3ncccc3C2=O)c(I)cc1O` [Ex77]: ≤ 500 nM. The value for `COc1cc(/C=c2\sc3n(c2=O)CCCN=3)c(Cl)cc1O` [Ex43] was 500 to 10000 nM; that for `CN1C(=O)S/C(=C\c2cc(Oc3cccc4c3COCC4)c(O)cc2Br)C1=O` [ExB27] was ≥ 10000 nM; that for `Cc1cnccc1/C=C1\SC(=O)NC1=O` [Ex3] was ≤ 500 nM. The same measure for `CN1C(=O)S/C(=C\c2cc(OCc3cnc(S)nc3)c(O)cc2Br)C1=O` [Ex219]: 500 to 10000 nM. For `COc1cc(/C=C2\SC(=O)N(C)C2=O)c(Br)cc1Oc1ccncc1` [Ex202], the IC50 fell in the range of 500 to 10000 nM. The value for `CN1C(=O)S/C(=C\c2cc(OCc3cncc4ccccc34)c(O)cc2Br)C1=O` [Ex176] was 500 to 10000 nM. The value for `COc1cc(/C=c2\sc3n(c2=O)CCN=3)c(Cl)cc1O` [Ex41] was 500 to 10000 nM; that for `CN1C(=O)S/C(=C\c2cc(OCc3cnc(NCc4ccncc4)nc3)c(O)c(F)c2Br)C1=O` [Ex190] was ≤ 500 nM; that for `C#Cc1cc(O)c(OC)cc1/C=C1\SC(=O)N(C)C1=O` [Ex19] was ≥ 10000 nM. Turning to `CN1C(=O)S/C(=C\c2cc(OCc3cnc(N(C)C)nc3)c(O)cc2Br)C1=O` [Ex162], the IC50 is ≥ 10000 nM.

For `CN1C(=O)S/C(=C\c2cc(OCc3cnc(Nc4ccccc4)nc3)c(O)cc2Br)C1=O` [Ex158], the IC50 was in the range of 500 to 10000 nM. Consider `COc1cc(/C=C2\Sc3ncncc3C2=O)c(Br)cc1O` [Ex51], for which the IC50 is 500 to 10000 nM.

With `CN1C(=O)S/C(=C\c2cc(OCC3CCN(C(=O)c4ccccn4)CC3)c(O)cc2Br)C1=O` [Ex128], the IC50 lay within 500 to 10000 nM.

`CC(C)c1cc(/C=C2\SC(=O)N(C)C2=O)c(Br)cc1O` [ExB18]: the IC50 was ≥ 10000 nM. The value for `CN1C(=O)S/C(=C\c2cc(OCC3(c4cnc(N)nc4)CC3)c(O)c(F)c2Br)C1=O` [ExB6] was 500 to 10000 nM; that for `CN1C(=O)S/C(=C\c2cc(OCc3cncc(NC(=O)c4cccnc4)c3)c(O)cc2Br)C1=O` [Ex224] was 500 to 10000 nM; that for `CC(Oc1cc(/C=C2\Sc3ncccc3C2=O)c(Br)cc1O)c1cnc(Cl)nc1` (stereo not shown) [Ex121] was ≤ 500 nM. On to `COc1cc(/C=C2\Sc3ncccc3C2=O)c(Br)cc1Oc1cnc(N)s1` [Ex74], for which the IC50 lay within 500 to 10000 nM. The same measure for `CN1C(=O)S/C(=C\c2cc(OCc3ccc(=O)[nH]c3)c(O)cc2Br)C1=O` [Ex125]: 500 to 10000 nM; for `CN1C(=O)S/C(=C\c2cc(OCc3ccccc3)c(O)cc2Br)C1=O` [Ex88]: 500 to 10000 nM. As to `O=C1NC(=O)/C(=C/c2ccnnc2)N1` [Ex15], the IC50 is ≥ 10000 nM. The value for `COc1cc(/C=C2\SC(=O)N(C)C2=O)c(Br)cc1NS(=O)(=O)c1ccccc1` [Ex23] was ≥ 10000 nM. The value for `COc1cc(/C=C2\SC(=O)N(C)C2=O)c(Br)c(Cl)c1O` [Ex34] was 500 to 10000 nM; that for `CN1C(=O)S/C(=C\c2cc(OCC(F)(F)c3cnc(N)nc3)c(O)c(F)c2Br)C1=O` [ExA20] was 500 to 10000 nM; that for `CNc1ncc(C(C)Oc2cc(/C=C3\SC(=O)N(C)C3=O)c(Br)c(F)c2O)cn1` (stereo not shown) [Ex111] was 500 to 10000 nM. With `COc1cc(/C=C2\Sc3ncc(F)cc3C2=O)c(Br)cc1O` [Ex48], the IC50 is ≤ 500 nM. The same measure for `CC(C)COc1cc(/C=C2\SC(=O)N(C)C2=O)c(Br)cc1O` [Ex85]: 500 to 10000 nM. The value for `CN1C(=O)S/C(=C\c2cc(OCc3cncc(NCc4ccncc4)c3)c(O)cc2Br)C1=O` [Ex228] was ≥ 10000 nM; that for `O=C1NC(=O)/C(=C2\CCCc3cnccc32)S1` [Ex5] was ≤ 500 nM; that for `CN1C(=O)S/C(=C\c2cc(OCc3ccnc4ccccc34)c(O)cc2Br)C1=O` [Ex178] was 500 to 10000 nM. The same measure for `CN1C(=O)S/C(=C\c2cc(CCc3cnc(N)nc3)c(O)cc2Br)C1=O` [ExB41]: 500 to 10000 nM. As to `C/N=C1/S/C(=C\c2cc(OC)c(O)cc2Br)C(=O)N1C` [ExB22], the IC50 is ≥ 10000 nM. In the case of `Cc1ncc(COc2cc(/C=C3\SC(=O)N(C)C3=O)c(Br)cc2O)cn1` [Ex186], the IC50 lay in the range of 500 to 10000 nM. The value for `O=C1/C(=C/c2cc(OCc3cnc(NCc4cccnc4)nc3)c(O)cc2Br)Sc2ncccc21` [Ex199] was ≤ 500 nM. Take `COc1cc(/C=C2\SC(=O)N(C)C2=O)c(F)cc1O` [Ex29]: the IC50 is ≥ 10000 nM. The same measure for `CSc1ncc(COc2cc(/C=C3\SC(=O)N(C)C3=O)c(Br)cc2O)c(Cl)n1` [Ex98]: 500 to 10000 nM; for `Nc1ncc(COc2cc(/C=C3\Sc4ncccc4C3=O)c(Br)cc2O)c(C(F)(F)F)n1` [Ex118]: ≤ 500 nM; for `CN1C(=O)S/C(=C\c2cc(CC(F)(F)F)c(O)cc2Br)C1=O` [ExB20]: 500 to 10000 nM.

(Values after patent US12065416B2, “cGAS antagonist compounds” (IMMUNESENSOR THERAPEUTICS, INC., priority 2016, dated 2024).)
